Target: human M4 receptor (Homo sapiens (Human), UniProt P08173)
Assay: Radioligand (tritiated N-methylscopolamine) binding assay, M4
Conditions: Ki against the M4 receptor; membranes from CHO cells expressing human M4; tritiated N-methylscopolamine 1.5 nM; read-out: Ki
Outline: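 Compounds were tested at twelve concentrations ranging from 10 μM to […] against 1.5 nM radioligand on CHO cell membranes expressing each subtype. Incubation lasts 90 min at 37 °C in HEPES-buffered saline with Mg2+ and EDTA, pH 7.4, and filtration then separates bound radioligand.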

Chain of human M4 receptor (P08173 whole entry): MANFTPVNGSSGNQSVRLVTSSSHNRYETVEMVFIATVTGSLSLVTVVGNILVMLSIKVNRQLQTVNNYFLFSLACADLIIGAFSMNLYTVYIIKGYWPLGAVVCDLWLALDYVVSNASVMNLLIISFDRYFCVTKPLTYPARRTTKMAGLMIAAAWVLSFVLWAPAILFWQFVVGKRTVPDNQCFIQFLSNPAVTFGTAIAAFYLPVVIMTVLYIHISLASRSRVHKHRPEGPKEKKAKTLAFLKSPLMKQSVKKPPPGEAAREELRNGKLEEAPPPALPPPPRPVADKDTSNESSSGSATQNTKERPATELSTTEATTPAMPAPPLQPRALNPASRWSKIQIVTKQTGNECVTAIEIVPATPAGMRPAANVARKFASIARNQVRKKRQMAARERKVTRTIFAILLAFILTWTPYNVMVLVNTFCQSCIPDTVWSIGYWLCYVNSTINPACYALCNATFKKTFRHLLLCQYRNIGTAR

Molecule | Ki [nM]
COc1ncccc1-c1cc2ncc(C(=O)NCCC3CCN(Cc4ccccc4)CC3)c(C)n2n1 [18-14] | 10 to 100
Cc1c(C(=O)NCCC2CCN(Cc3ccccc3)CC2)cnc2cc(-c3ccc(F)nc3)nn12 [18-15] | 100 to 1000
Cc1c(C(=O)NCCC2CCN(Cc3ccccc3)CC2)cnc2cc(-c3cccnc3F)nn12 [18-18] | 100 to 1000
COc1cc(C)c(-c2cc3ncc(C(=O)NCCC4CCN(Cc5ccccc5)CC4)c(C)n3n2)cn1 [18-19] | 100 to 1000
Cc1c(C(=O)NCCC2CCN(Cc3ccccc3)CC2)cnc2cc(-c3ccnc(F)c3)nn12 [18-20] | 10 to 100
Cc1c(C(=O)NCCC2CCN(Cc3cccnc3)CC2)cnc2cc(-c3cccc(C(F)(F)F)c3)nn12 [19-1, 7-methyl-N-{2-[1-(pyridin-3-ylmethyl)piperidin-4-yl]ethyl}-2-[3-(trifluoromethyl)phenyl]pyrazolo[1,5-a]pyrimidine-6-carboxamide] | 100 to 1000
Cc1c(C(=O)NCCC2CCN(Cc3cccc4c3OCCO4)CC2)cnc2cc(-c3ccccc3)nn12 [19-2] | 10 to 100
Cc1c(C(=O)NCCC2CCN(CC3CCCCC3)CC2)cnc2cc(-c3cccc(C(F)(F)F)c3)nn12 [19-3] | 100 to 1000
Cc1c(C(=O)NCCC2CCN(Cc3ccccc3O)CC2)cnc2cc(-c3ccccc3)nn12 [19-4] | 100 to 1000
Cc1c(C(=O)NCCC2CCN(Cc3ccncc3)CC2)cnc2cc(-c3cccc(C(F)(F)F)c3)nn12 [19-5] | 100 to 1000
Cc1c(C(=O)NCCC2CCN(Cc3ccccn3)CC2)cnc2cc(-c3cccc(C(F)(F)F)c3)nn12 [19-6] | 100 to 1000
COc1cccc(CN2CCC(CCNC(=O)c3cnc4cc(-c5ccccc5)nn4c3C)CC2)c1 [19-7] | 100 to 1000
Cc1c(C(=O)NCCC2CCN(Cc3ccc(O)cc3)CC2)cnc2cc(-c3ccccc3)nn12 [19-8] | 100 to 1000
C[C@H]1CN(c2ncc(C#N)cn2)CCC1C(=O)NCCC1CCN(Cc2ccccc2)CC1 (stereo partly drawn) [20-1, (3R)-N-[2-(1-benzylpiperidin-4-yl)ethyl]-1-(5-cyanopyrimidin-2-yl)-3-methylpiperidine-4-carboxamide] | 10 to 100
C[C@@H]1CN(c2ncc(C#N)cn2)C[C@H](C)N1C(=O)NCCC1CCN(CC2CCCCC2)CC1 [21-1, (2R,6S)-4-(5-cyanopyrimidin-2-yl)-N-{2-[1-(cyclohexylmethyl)piperidin-4-yl]ethyl}-2,6-dimethylpiperazine-1-carboxamide] | 10 to 100
C[C@@H]1CN(c2ncc(C#N)cn2)C[C@H](C)N1C(=O)NCCC1CCN(Cc2ccccn2)CC1 [21-3] | 100 to 1000
C[C@@H]1CN(c2ncc(C#N)cn2)C[C@H](C)N1C(=O)NCCC1CCN(C2Cc3ccccc3C2)CC1 [21-4, (2R,6S)-4-(5-cyanopyrimidin-2-yl)-N-{2-[l-(2,3-dihydro-1H-inden-2-yl)piperidin-4-yl]ethyl}-2,6-dimethylpiperazine-1-carboxamide] | 10 to 100
C[C@@H]1CN(c2ncc(C#N)cn2)C[C@H](C)N1C(=O)NCCC1CCN(CC2CCC2)CC1 [21-5] | 100 to 1000
CC(C)CN1CCC(CCNC(=O)N2[C@H](C)CN(c3ncc(C#N)cn3)C[C@@H]2C)CC1 [21-6] | 100 to 1000
CC(C)CCN1CCC(CCNC(=O)N2[C@H](C)CN(c3ncc(C#N)cn3)C[C@@H]2C)CC1 [21-8] | 100 to 1000

Molecule | Ki [nM]
C[C@@H]1CN(c2ncc(C#N)cn2)C[C@H](C)N1C(=O)NCCC1CCN(CC2CCCCO2)CC1 (stereo partly drawn) [21-9] | 100 to 1000
C[C@@H]1CN(c2ncc(C#N)cn2)C[C@H](C)N1C(=O)NCCC1CCN(CC2(C)COC2)CC1 [21-10] | 100 to 1000
C[C@@H]1CN(c2ncc(C#N)cn2)C[C@H](C)N1C(=O)NCCC1CCN(CC2CCCS(=O)(=O)C2)CC1 (stereo partly drawn) [21-11, (2R,6S)-4-(5-cyanopyrimidin-2-yl)-N-(2-{1-[(1,1-dioxo-1-thian-3-yl)methyl]piperidin-4-yl}ethyl)-2,6-dimethylpiperazine-1-carboxamide] | 100 to 1000
C[C@@H]1CN(c2ncc(C#N)cn2)C[C@H](C)N1C(=O)NCCC1CCN(CC23CC(C2)C3)CC1 [21-12] | 100 to 1000
C[C@@H]1CN(c2ncc(C#N)cn2)C[C@H](C)N1C(=O)NCCC1CCN(CC23C4C5C6C4C2C6C53)CC1 (stereo partly drawn) [21-13] | 10 to 100
C[C@@H]1CN(c2cnc(C(F)(F)F)nc2)C[C@H](C)N1C(=O)NCCC1CCN(Cc2ccccc2)CC1 [22-1, (2R,6S)—N-[2-(1-benzylpiperidin-4-yl)ethyl]-2,6-dimethyl-4-[2-(trifluoromethyl)pyrimidin-5-yl]piperazine-1-carboxamide] | 10 to 100
C[C@@H]1CN(c2cc(F)c(F)cc2F)C[C@H](C)N1C(=O)NCCC1CCN(Cc2ccccc2)CC1 [22-6] | 10 to 100
C[C@@H]1CN(c2ccc(Cl)nc2)CCN1C(=O)NCCC1CCN(Cc2ccccc2)CC1 [22-11] | 10 to 100
COc1cc(N2CCN(C(=O)NCCC3CCN(Cc4ccccc4)CC3)[C@H](C)C2)ccn1 [22-16] | 10 to 100
C[C@@H]1CN(c2ccnc(F)c2)CCN1C(=O)NCCC1CCN(Cc2ccccc2)CC1 [22-18] | 10 to 100
C[C@@H]1CN(c2cncnc2)CCN1C(=O)NCCC1CCN(Cc2ccccc2)CC1 [22-19] | 10 to 100
C[C@@H]1CN(c2ccc(C#N)c(N(C)C)c2)CCN1C(=O)NCCC1CCN(Cc2ccccc2)CC1 [22-26] | 10 to 100
C[C@@H]1CN(c2cnc(C#N)cn2)CCN1C(=O)NCCC1CCN(Cc2ccccc2)CC1 [22-27] | 10 to 100
COc1cc(N2CCN(C(=O)NCCC3CCN(Cc4ccccc4)CC3)[C@H](C)C2)ccc1C#N [22-28, (2R)-N-[2-(1-benzylpiperidin-4-yl)ethyl]-4-(4-cyano-3-methoxyphenyl)-2-methylpiperazine-1-carboxamide] | 10 to 100
C[C@@H]1CN(c2ccnc(C(F)(F)F)c2)CCN1C(=O)NCCC1CCN(Cc2ccccc2)CC1 [22-29] | 10 to 100
C[C@@H]1CN(c2cnc(C#N)nc2)C[C@H](C)N1C(=O)NCCC1CCN(Cc2ccccc2)CC1 [23-1, (2S,6R)-N-[2-(1-benzylpiperidin-4-yl)ethyl]-4-(2-cyanopyrimidin-5-yl)-2,6-dimethylpiperazine-1-carboxamide] | 100 to 1000
C[C@@H]1CN(c2cnc(C#N)cn2)C[C@H](C)N1C(=O)NCCC1CCN(Cc2ccccc2)CC1 [23-2, (2R,6S)-N-[2-(1-benzylpiperidin-4-yl)ethyl]-4-(5-cyanopyrazin-2-yl)-2,6-dimethylpiperazine-1-carboxamide] | 10 to 100
C[C@@H]1CN(c2ccc(C#N)nn2)C[C@H](C)N1C(=O)NCCC1CCN(Cc2ccccc2)CC1 [23-3, (2R,6S)-N-[2-(1-benzylpiperidin-4-yl)ethyl]-4-(6-cyanopyridazin-3-yl)-2,6-dimethylpiperazine-1-carboxamide] | 10 to 100
C[C@H]1CN(c2ncc(C#N)cn2)C[C@H](C)N1C(=O)NCCC1CCN(Cc2ccccc2)CC1 [26-3] | 100 to 1000
C[C@@H]1CN(c2ncc(C(F)(F)F)cn2)C[C@@H](C)N1C(=O)NCCC1CCN(Cc2ccccc2)CC1 [26-5, (2R,6R)-N-[2-(1-benzylpiperidin-4-yl)ethyl]-2,6-dimethyl-4-[5-(trifluoromethyl)pyrimidin-2-yl]piperazine-1-carboxamide] | < 10

Molecule | Ki [nM]
C[C@@H]1CN(c2ncc(C(=O)NC3CC3)cn2)C[C@H](C)N1C(=O)NCCC1CCN(Cc2ccccc2)CC1 [27-1, 2-[(3R,5S)-4-{[2-(1-benzylpiperidin-4-yl)ethyl]carbamoyl}-3,5-dimethylpiperazin-1-yl]-N-cyclopropylpyrimidine-5-carboxamide] | 10 to 100
C[C@@H]1CN(c2ncc(C(=O)N3CCCC3)cn2)C[C@H](C)N1C(=O)NCCC1CCN(Cc2ccccc2)CC1 [27-2] | 100 to 1000
CC(C)N(C)C(=O)c1cnc(N2C[C@@H](C)N(C(=O)NCCC3CCN(Cc4ccccc4)CC3)[C@@H](C)C2)nc1 [27-3] | 100 to 1000
C=CCNC(=O)c1cnc(N2C[C@@H](C)N(C(=O)NCCC3CCN(Cc4ccccc4)CC3)[C@@H](C)C2)nc1 [27-4] | 100 to 1000
C[C@@H]1CN(c2ncc(C(=O)NCC3CC3)cn2)C[C@H](C)N1C(=O)NCCC1CCN(Cc2ccccc2)CC1 [27-5] | 100 to 1000
C[C@@H]1CN(c2ncc(C(=O)NC3CCC3)cn2)C[C@H](C)N1C(=O)NCCC1CCN(Cc2ccccc2)CC1 [27-6] | 100 to 1000
C[C@@H]1CN(c2ncc(C(=O)NCCF)cn2)C[C@H](C)N1C(=O)NCCC1CCN(Cc2ccccc2)CC1 [27-7] | 100 to 1000
CCC(C)NC(=O)c1cnc(N2C[C@@H](C)N(C(=O)NCCC3CCN(Cc4ccccc4)CC3)[C@@H](C)C2)nc1 (stereo partly drawn) [27-8] | 100 to 1000
CCN(C)C(=O)c1cnc(N2CCN(C(=O)NCCC3CCN(Cc4ccccc4)CC3)[C@H](C)C2)nc1 [27-9] | 100 to 1000
CNC(=O)c1cnc(N2CCN(C(=O)NCCC3CCN(Cc4ccccc4)CC3)[C@H](C)C2)nc1 [27-10] | 100 to 1000
Cc1cc(C(=O)NCC(C)C)nc(N2CCN(C(=O)NCCC3CCN(Cc4ccccc4)CC3)[C@H](C)C2)n1 [27-11] | 10 to 100
CC(C)CNC(=O)c1cnc(N2CCN(C(=O)NCCC3CCN(Cc4ccccc4)CC3)[C@H](C)C2)nc1 [27-12] | 10 to 100
Cc1cc(C(=O)NC(C)C)nc(N2CCN(C(=O)NCCC3CCN(Cc4ccccc4)CC3)[C@H](C)C2)n1 [27-13] | 100 to 1000
Cc1cc(C(=O)NC2CC2)nc(N2CCN(C(=O)NCCC3CCN(Cc4ccccc4)CC3)[C@H](C)C2)n1 [27-14] | 100 to 1000
CC(C)NC(=O)c1cnc(N2CCN(C(=O)NCCC3CCN(Cc4ccccc4)CC3)[C@H](C)C2)nc1 [27-15] | 100 to 1000
CCNC(=O)c1cnc(N2CCN(C(=O)NCCC3CCN(Cc4ccccc4)CC3)[C@H](C)C2)nc1 [27-16] | 100 to 1000
C[C@@H]1CN(c2ncc(C(=O)N(C)C)cn2)CCN1C(=O)NCCC1CCN(Cc2ccccc2)CC1 [27-17] | 100 to 1000
CCN(C)C(=O)c1cc(C)nc(N2CCN(C(=O)NCCC3CCN(Cc4ccccc4)CC3)[C@H](C)C2)n1 [27-18] | 100 to 1000
CCNC(=O)c1cc(C)nc(N2CCN(C(=O)NCCC3CCN(Cc4ccccc4)CC3)[C@H](C)C2)n1 [27-19] | 100 to 1000
N-(2-{1-[(4-hydroxyphenyl)methyl]piperidin-4-yl}ethyl)-4-phenoxybenzamide [11-10] | 100 to 1000

Source: patent US11033539B2, “Compounds of formulas (VII), (VIII), (IX), (XI), (XII), (XIII), and (XIV) as muscarinic receptor 4(M4) antagonists for treating neurological diseases” (Neurocrine Biosciences, Inc., priority 2015, dated 2021)
